# EP0429987B1, “5,11-Dihydro-6H-dipyrido[3,2-b:2',3'-e] [1,4]diazepines and their use in the prevention or treatment of HIV infection” (priority 1989, dated 1991)
# Molecular target: T1, HIV-1 RT (Human immunodeficiency virus type 1 group M subtype B, UniProt P03367)
# T1 construct: Reverse transcriptase enzyme from the LAV strain of Human Immunodeficiency Virus (HIV-1) (1) was isolated; made in house; host or cells: E. coli JM109, clone pBRTprtl+ in vector pIBI21 (lac promoter, IPTG induction)
# Test: Reverse Transcriptase (RT) Assay: inhibition of RNA-dependent DNA polymerase activity
# Assay type: biochemical
# Settings: @ 0.5µM
# Description: Utilizing the Reverse Transcriptase (RT) Assay described below, compounds can be tested for their ability to inhibit the RNA-dependent DNA polymerase activity of HIV-1 RT.
# Among the enzymes for which Human Immunodeficiency Virus (HIV-1) encodes is a reverse transcriptase (1), so-named because it transcribes a DNA copy from an RNA template. This activity can be quantitatively measured in a cell-free enzyme assay, which has been previously described (2), and is based upon the observation that reverse transcriptase is able to use a synthetic template [poly r(C) primed with oligo d(G)] to transcribe a radio-labelled, acid-precipitable DNA strand utilizing ^3H-dGTP as a substrate.
# Reverse transcriptase enzyme from the LAV strain of Human Immunodeficiency Virus (HIV-1) (1) was isolated from the bacterial strain JM109 (3) expressing the DNA clone pBRTprtl+ (2) which is under the control of the lac promotor in the expression vector pIBI21 (4). An overnight culture grown in 2XYT medium (37°C, 225 rpm) (5) supplemented with 100 µg/ml ampicillin for positive selection is inoculated at a 1:40 dilution into M9 medium supplemented with 10µg/ml thiamine, 0.5% casamino acids, and 50 µg/ml ampicillin (5). The culture is incubated (37°C, 225 rpm) until it reaches an OD540 of 0.3-0.4. At that time the repressor inhibitor IPTG (isopropyl β-D-thiogalactopyranoside) is added to 0.5mM, and the mixture is incubated for 2 additional hours. Bacteria are pelleted, resuspended in a 50mM Tris, 0.6mM EDTA, 0.375M NaCl buffer and digested by the addition of lysozyme (1mg/ml) for 30 minutes on ice. The cells are lysed by the addition of 0.2% NP-40 and brought to 1M NaCl.
# After removal of the insoluble debris by centrifugation, the protein is precipitated by the addition of 3 volumes of saturated aqueous ammonium sulfate. The enzyme is pelleted, resuspended in RT buffer (50mM Tris pH 7.5, 1mM EDTA, 5mM DTT, 0.1% NP-40, 0.1M NaCl, and 50% glycerol), and stored at -70°C for further use.
# The 2X concentrated stock reaction mixture is aliquoted and stored at -20°C. […] This enzyme assay has been adapted to a 96 well microtiter plate system, and has been previously described (6). Tris buffer (50 mM, pH 7.4), vehicle (solvent diluted to match the compound dilution), or compounds in vehicle are dispensed into 96-well microtiter plates (10µl/well; 3 wells/ compound). The HIV-1 RT enzyme is thawed, diluted in 50mM Tris pH 7.4 so that fifteen µl of diluted enzyme contain 0.001 Unit (one unit is that amount of enzyme to transform 1 micromole of substrate per minute at 25°C), and fifteen µl are dispensed per well. Twenty µl of 0.12-0.5M EDTA are added to the first three wells of the microtiter plate. EDTA chelates the Mg^++ present and prevents reverse transcription. This group serves as background polymerization which is subtracted from all other groups. Twenty-five µl of the 2X reaction mixture are added to all wells and the assay is allowed to incubate at room temperature for 60 minutes. The assay is terminated by precipitating the DNA in each well with 50µl of 10% trichloracetic acid (TCA) (10% w/v) in sodium pyrophosphate (1% w/v). The microtiter plate is incubated for 15 minutes at 4°C and the precipitate is fixed onto #30 glass fiber paper (Schleicher & Schuell) using a Skatron semi-automatic harvester. The filters are then washed with additional TCA (5%) containing sodium pyrophosphate (1%), rinsed with aqueous ethanol (70%), dried, and transferred to scintillation vials (6). Each vial receives 2 mls of scintillation cocktail and is counted in a Beckman beta counter.
# The calculation for percent inhibition is as follows: %inhibition =(CPM Mean Test Value - CPM Mean Control Value X100)/(CPM Mean Control Value) [formula]
row,inhibition at 0.5 µM [%],SMILES
1,30,CC(=O)N1C(=O)c2cccnc2N(C2CC2)c2nccc(C)c21 [Example 54]

# Same assay, conditions: @ 1µM (footnote *); read-out: RT Assay % inhibition
row,SMILES,inhibition at 1 µM [%]
1,"Cc1ccnc2c1N(O)C(=O)c1cccnc1N2C1CC1 [Example 4, 11-Cyclopropyl-5,11-dihydro-5-hydroxy-4-methyl-6H-dipyrido[3,2-b:2',3'-e][1,4]diazepin-6-one]",36
2,CCN1c2ncccc2C(=O)N(C)c2cc(Cl)c([N+](=O)[O-])nc21 [Example 8],40
3,CCc1ccnc2c1NC(=O)c1cccnc1N2C1CC1 [Example 11],76
4,CCN1c2ncccc2C(=O)Nc2c(C)cc(Cl)nc21 [Example 12],91
5,CCN1c2ncc(N=[N+]=[N-])cc2C(=O)N(C)c2cccnc21 [Example 16],63
6,O=C1Nc2cccnc2N(C2CCCC2)c2ncccc21 [Example 24],35
7,CCN1c2ncccc2C(=O)N(C)c2ccc(N3CC=CC3)nc21 [Example 26],86
8,CCN1c2ncccc2NC(=O)c2c(C)cc(C)nc21 [Example 27],2
9,CN1C(=O)c2cccnc2N(C2CCCC2)c2ncccc21 [Example 28],34
10,O=C1Nc2c(Cl)ccnc2N(C2CC2)c2ncccc21 [Example 33],83
11,C=CCNc1ccc2c(n1)N(CC)c1ncccc1C(=O)N2C [Example 37],70
12,Cc1ccnc2c1NC(=O)c1c(O)ccnc1N2C1CC1 [Example 41],32
13,O=C1Nc2cccnc2N(C2CCCCC2)c2ncccc21 [Example 45],35
14,C=CCN1C(=O)c2cccnc2N(C2CC2)c2nccc(C)c21 [Example 50],44
15,CCN1c2ncc(N)cc2C(=O)N(C)c2cc(N)cnc21 [Example 51],20
16,CON1C(=O)c2cccnc2N(C2CC2)c2nccc(C)c21 [Example 53],17
17,CCN1c2ncccc2C(=O)N(C)c2ccc(NCc3ccc(OC)cc3)nc21 [Example 55],61
18,CCN1c2ncccc2C(=O)N(C)c2ccc(N(C)C)nc21 [Example 60],90
19,CCN1c2ncccc2C(=O)Nc2c1nc(N1CCCC1)c(Cl)c2C [Example 64],94
20,"CCN1c2ncc(N)cc2C(=O)N(C)c2cccnc21 [Example 65, 8-Amino-5,11-dihydro-11-ethyl-5-methyl-6H-dipyrido[3,2-b:2',3'-e] [1,4]diazepin-6-one hemihydrate]",82

# Results, then the compound that gave them:
row,inhibition at 1 µM [%],SMILES
1,75,CCc1ccnc2c1NC(=O)c1cccnc1N2C1CCC1 [Example 9]
2,90,Cc1cc(Cl)nc2c1NC(=O)c1cccnc1N2C1CC1 [Example 13]
3,50,Cc1ccnc2c1N(C)C(=O)c1cccnc1N2C1CC1 [Example 19]
4,94,CCN1c2ncccc2C(=O)N(C)c2c(C)cc(N3CCCC3)nc21 [Example 25]
5,64,CCN1c2ncccc2C(=O)N(C)c2ccc(N(C)Cc3ccc(OC)cc3)nc21 [Example 36]
6,34,O=C1Nc2c(CO)ccnc2N(C2CC2)c2ncccc21 [Example 38]
7,90,CN1C(=O)c2cccnc2N(C2CCCCC2)c2ncccc21 [Example 44]
8,52,CCN1c2ncccc2C(=O)N(C)c2cc(Cl)c(N)nc21 [Example 49]
9,72,C=COC(=O)N1C(=O)c2cccnc2N(C2CC2)c2nccc(C)c21 [Example 52]
10,68,CCN1c2ncccc2C(=O)N(C)c2ccc(N3CCOCC3)nc21 [Example 56]
11,66,CCN1c2ncccc2C(=O)N(C)c2ccc(N3CCCCC3)nc21 [Example 57]
12,8,CN(C)CCN1C(=O)c2cccnc2N(C2CC2)c2ncccc21 [Example 59]
13,75,CCNc1ccc2c(n1)N(CC)c1ncccc1C(=O)N2C [Example 61]
14,0,CCN1c2ncc([N+](=O)[O-])cc2C(=O)N(C)c2cccnc21 [Example 62]
15,98,CCN1c2nc(N(C)C)ccc2NC(=O)c2cccnc21 [Example 63]

# Same assay, conditions: @ 1.25µM (footnote +)
row,inhibition at 1.25 µM [%],SMILES
1,37,N#Cc1ccnc2c1NC(=O)c1cccnc1N2C1CC1 [Example 58]

# Same assay, conditions: read-out: RT Assay % inhibition
row,SMILES,inhibition at 1 µM [%]
1,Cc1cc(C)c2c(n1)N(C1CC1)c1ncccc1C(=O)N2 [Example 10],85
2,CCN1c2ncc([N+](=O)[O-])cc2C(=O)N(C)c2cc([N+](=O)[O-])cnc21 [Example 39],0
3,CCN1c2ncc([N+](=O)[O-])cc2C(=O)N(C)c2cc(Cl)c([N+](=O)[O-])nc21 [Example 40],0
4,"Cc1ccnc2c1NC(=S)c1cccnc1N2C1CC1 [Example 42, 5,11 Dihydro-6H-11-cyclopropyl-4-methyl-dipyrido[3,2-b:2',3'-e][1,4]diazepin-6-thione]",90
5,"CCN1c2ncccc2C(=NOC)Nc2c(C)cc(C)nc21 [Example 67, 5,11-Dihydro-11-ethyl-6-methoxyimino-2,4-dimethyl-6H-dipyrido[3,2-b:2',3'-e][1,4]diazepine]",88

# Same assay, conditions: read-out: RT Assay % inhibition @ 10 µg/ml
row,SMILES,inhibition at 10 µg/mL [%]
1,"CCN1c2ncccc2C(=O)Nc2c(C(F)(F)F)cc(C)nc21 [Example 1, 5,11-Dihydro-11-ethyl-2-methyl-4-trifluoromethyl-6H-dipyrido-[3,2-b:2',3'-e][1,4]diazepin-6-one]",100
2,O=C1Nc2cccnc2N(C2CC2)c2ncccc21 [Example 18],99
3,CCN1c2ncccc2C(=O)N(C)c2cc(C)c(C)nc21 [Example 22],100
4,CC[C@H](C)N1c2ncccc2NC(=O)c2cccnc21 [Example 23],88
5,COCN1C(=O)c2cccnc2N(COC)c2nccc(C)c21 [Example 29],0
6,O=C1Nc2cccnc2N(C2CCC2)c2ncccc21 [Example 31],99
7,CN1C(=O)c2cccnc2N(C#N)c2ncccc21 [Example 43],44
8,CCN1c2ncccc2NC(=O)c2c1nc(C)c(Cl)c2C [Example 46],44
9,CN1C(=O)c2cccnc2N(S(C)(=O)=O)c2ncccc21 [Example 48],77
10,"CCN1c2ncccc2C(=NC#N)Nc2c(C)cc(C)nc21 [Example 66, 6-Cyanoimino-5,11-dihydro-11-ethyl-2,4-dimethyl-6H-dipyrido[3,2-b:2',3'-e][1,4]diazepine]",100

# The next lines start with the values.
row,inhibition at 10 µg/mL [%],SMILES
1,87,CN1C(=O)c2cccnc2N(C(C)(C)C)c2ncccc21 [Example 15]
2,99,CC(C)N1c2ncccc2NC(=O)c2cccnc21 [Example 17]
3,93,CN1C(=O)c2cccnc2N(CC2CC2)c2ncccc21 [Example 20]
4,85,CC[C@@H](C)N1c2ncccc2NC(=O)c2cccnc21 [Example 21]
5,100,CCN1c2ncccc2C(=O)Nc2c(C(F)(F)F)cc(Cl)nc21 [Example 30]
6,100,CN1C(=O)c2cccnc2N(C2CCC2)c2ncccc21 [Example 32]
7,91,COc1ccnc2c1NC(=O)c1cccnc1N2C1CC1 [Example 35]
